According to patent US20070148232A1, “Stabilized pharmaceutical solid compositions of low-solubility drugs and poloxamers, and stabilizing polymers” (Pfizer Inc., priority 2003, published 2007):
≈ marks a conversion by molar mass, not a printed value.

How the values were obtained:
Format in all cases: physicochemical
[1] = in vitro dissolution test of Drug 1 compositions in MFDS; conditions: dose 1000 μg/mL; for AUC / Drug 1 Concentration: MFDS, 37° C.
Description: The solid composition of Example 1 was evaluated in an in vitro dissolution test as follows. For each test, the composition was added to microcentrifuge tubes in duplicate. […] The samples were quickly mixed using a vortex mixer for about 60 seconds. The samples were centrifuged at 13,000 G at 37° C. for 1 minute. The resulting supernatant solution was then sampled and diluted 1:6 (by volume) with methanol and then analyzed by high-performance liquid chromatography (HPLC). The contents of each respective tube were mixed on the vortex mixer and allowed to stand undisturbed at 37° C. until the next sample was taken. Samples were collected at 4, 10, 20, 40, 90, and 1200 minutes. As a control (C1), crystalline Drug 1 alone was added 1.8 mL of MFDS, at a sufficient amount so that the concentration of drug would have been 1000 μg/mL, if all of the drug had dissolved. […] Control C2 consisted of 50 wt % Drug 1 and 50 wt % HPMC. The composition was formed by first forming a spray solution consisting of […] Drug 1 and 250 mg HPMC in 58.7 gm of a 50.7:8 w/w mixture of acetone:water. This solution was pumped into a “mini” spray-drying apparatus via a Cole Parmer 74900 series rate-controlling syringe pump at a rate of 70 ml/hr. The spray solution was atomized through a Spraying Systems Co. two-fluid nozzle, Model No. SU1A, using a heated stream of nitrogen at a flow rate of 1 SCFM. The spray solution was sprayed into an 11-cm diameter stainless steel chamber. The heated gas entered the chamber at an inlet temperature of 110° C. and exited at ambient temperature. The resulting solid composition was collected on filter paper, dried under vacuum, and stored in a desiccator. This composition was tested in a dissolution test using the procedures described above except that a sufficient amount of the composition was added so that the concentration if all of the drug had dissolved would have been 3000 μg/mL. The stability of the solid composition of Example 1 was evaluated in an accelerated storage test. The composition was stored under elevated temperature and humidity conditions to increase the rate of physical changes occurring in the material in order to simulate a longer storage interval in a typical storage environment. A sample of the composition was stored for 3 weeks at 40° C./75% RH.

[2] = in vitro dissolution test of Drug 1 compositions in PBS; conditions: dose 1000 μg/mL; for AUC / Drug 1 Concentration: PBS, 37° C.
Description: The solid composition of Example 1 was evaluated in an in vitro dissolution test as follows. For each test, the composition was added to microcentrifuge tubes in duplicate. […] The samples were quickly mixed using a vortex mixer for about 60 seconds. The samples were centrifuged at 13,000 G at 37° C. for 1 minute. The resulting supernatant solution was then sampled and diluted 1:6 (by volume) with methanol and then analyzed by high-performance liquid chromatography (HPLC). The contents of each respective tube were mixed on the vortex mixer and allowed to stand undisturbed at 37° C. until the next sample was taken. Samples were collected at 4, 10, 20, 40, 90, and 1200 minutes. […] The tubes were placed in a 37° C. temperature-controlled chamber, and 1.8 mL PBS was added. As a control (C4), crystalline Drug 1 alone was tested in PBS and a sufficient amount of material was added so that the concentration of drug would have been 1000 μg/mL, if all of the drug had dissolved.

[3] = in vitro dissolution test of Drug 2 compositions in PBS; conditions: dose 1000 μg/mL; for AUC90 / MDC90: initial ninety minutes; for AUC / Drug 2 Concentration: PBS, 37° C.
Description: The solid composition of Example 1 was evaluated in an in vitro dissolution test as follows. For each test, the composition was added to microcentrifuge tubes in duplicate. A 4.21 mg sample of the composition was added to each tube for a total concentration of 1000 μg/mL drug, if all of the drug had dissolved. The tubes were placed in a 37° C. temperature-controlled chamber, and 1.8 mL PBS containing 0.5 wt % sodium taurocholic acid and 1-palmitoyl-2-oleyl-sn-glycero-3-phosphocholine (NaTC/POPC, with a […] weight ratio) at pH 6.5 and 290mOsm/kg (model fasted duodenal solution, “MFDS”) was added to each respective tube. The samples were quickly mixed using a vortex mixer for about 60 seconds. The samples were centrifuged at 13,000 G at 37° C. for 1 minute. The resulting supernatant solution was then sampled and diluted 1:6 (by volume) with methanol and then analyzed by high-performance liquid chromatography (HPLC). The contents of each respective tube were mixed on the vortex mixer and allowed to stand undisturbed at 37° C. until the next sample was taken. Samples were collected at 4, 10, 20, 40, 90, and 1200 minutes.
A sufficient amount of the composition was added to each tube (in duplicate) for a total concentration of 1000 μg/mL drug, if all of the drug had dissolved. The tubes were placed in a 37° C. temperature-controlled chamber, and 1.8 mL PBS was added.
Control 5 (C5) consisted of crystalline Drug 2 alone, tested in PBS, and a sufficient amount of material was added so that the concentration of drug would have been 1000 μg/mL, if all the drug had dissolved.
A sufficient amount of the composition was added to each tube (in duplicate) for a total concentration of 1000 μg/mL drug, if all of the drug has dissolved. The tubes were placed in a 37° C. temperature-controlled chamber, and 1.8 mL PBS was added.
As a control (C6), a composition consisting of 25 wt % Drug 2 and 75 wt % HPMCAS-HF was formed using the rotoevaporation process described for Example 6. The composition was tested in vitro, and a sufficient amount of material was added to PBS so that the concentration of drug would have been 1000 μg/mL, if all of the drug had dissolved.

[4] = glass transition temperature (Tg) by DSC; conditions: at less than 5% RH
Excerpt: A solid composition was formed by a spray-drying process as follows. […] A spray solution was formed containing 2.5 wt % Viracept, 1.5 wt % Pluronic F127, 1.0 wt % HPMC, 85.5 wt % methanol, and 9.5 wt % water. The solution was mixed until the polymers and drug had all dissolved. The spray solution was pumped using a high-pressure pump to a spray drier (a Niro type XP Portable Spray-Dryer with a Liquid-Feed Process Vessel (“PSD-1”)), equipped with a pressure nozzle (model WG-126, from Delavan LTV). The PSD-1 was equipped with a 5-foot 9-inch chamber extension. The chamber extension was added to the spray dryer to increase the vertical length of the dryer. The added length increased the residence time within the dryer, which allowed the product to dry before reaching the angled section of the spray dryer. The spray drier was also equipped with a 316 SS circular diffuser plate with 1/16-inch drilled holes, having a 1% open area. […] The Tg of the resulting composition was determined by DSC to be about 107° C. at less than 5% RH.
Solid compositions containing Drug 1 were prepared using various amounts of poloxamer 407 and the stabilizing polymers hydroxypropyl methyl cellulose and hydroxypropyl methyl cellulose acetate succinate as described below. […] The Tg of each composition, measured at a relative humidity of less than 10%, is also included in Table 6.

[5] = solubility in PBS, pH 6.5; conditions: pH 6.5, aqueous buffer
[6] = Drug 1, MFDS, initial ninety minutes
[7] = Drug 1, PBS, initial ninety minutes

For `Cc1c(O)cccc1C(=O)N[C@@H](CSc1ccccc1)[C@H](O)CN1C[C@H]2CCCC[C@H]2C[C@H]1C(=O)NC(C)(C)C` [Drug 1, N-(1,1-dimethylethyl)decahydro-2-[(2R,3R)-2-hydroxy-3[(3-hydroxy-2-methylbenzoyl)amino]-4-(phenylthio)butyl]-3-isoquinolinecarboxamide (3s, 4aS, 8aS)-monomethanesulfonate], the AUC90 [1, 6] was 9,500 min*μg/mL, the MDC90 [1, 6] was 118 µg/mL and the AUC ([1]; 0 min) was 0 µg·min/mL. The “Drug 1 Concentration” value ([1]; 0 min) was 0 µg/mL, the AUC ([1]; 4 min) was 160 µg·min/mL and the “Drug 1 Concentration” value ([1]; 4 min) was 80 µg/mL. For the same molecule, the AUC ([1]; 10 min) was 700 µg·min/mL, the “Drug 1 Concentration” value ([1]; 10 min) was 98 µg/mL and the AUC ([1]; 20 min) was 1,700 min*μg/mL. For the same molecule, the “Drug 1 Concentration” value ([1]; 20 min) was 102 µg/mL, the AUC ([1]; 40 min) was 3,800 min*μg/mL and the “Drug 1 Concentration” value ([1]; 40 min) was 108 µg/mL. The AUC ([1]; 90 min) was 9,500 min*μg/mL, the “Drug 1 Concentration” value ([1]; 90 min) was 118 µg/mL and the AUC ([1]; 1200 min) was 247,000 min*μg/mL. For the same molecule, the “Drug 1 Concentration” value ([1]; 1200 min) was 310 µg/mL, the AUC90 [2, 7] was 285 µg·min/mL and the MDC90 [2, 7] was 6 µg/mL. For the same molecule, the AUC ([2]; 0 min) was 0 µg·min/mL, the “Drug 1 Concentration” value ([2]; 0 min) was 0 µg/mL and the AUC ([2]; 4 min) was 11 µg·min/mL. For the same molecule, the “Drug 1 Concentration” value ([2]; 4 min) was 5 µg/mL, the AUC ([2]; 10 min) was 46 µg·min/mL and the “Drug 1 Concentration” value ([2]; 10 min) was 6 µg/mL. For the same molecule, the AUC ([2]; 20 min) was 106 µg·min/mL, the “Drug 1 Concentration” value ([2]; 20 min) was 6 µg/mL and the AUC ([2]; 40 min) was 180 µg·min/mL. For the same molecule, the “Drug 1 Concentration” value ([2]; 40 min) was 2 µg/mL, the AUC ([2]; 90 min) was 285 µg·min/mL and the “Drug 1 Concentration” value ([2]; 90 min) was 2 µg/mL. The AUC ([2]; 1200 min) was 12,730 min*μg/mL, the “Drug 1 Concentration” value ([2]; 1200 min) was 20 µg/mL and the AUC90 ([3]; Drug 2, PBS) was under 100 µg·min/mL. The MDC90 ([3]; Drug 2, PBS) was under 1 µg/mL, the Tg [4] was 119 °C and the solubility [5] was about 20 µg/mL (≈ 35.2 µM).
In the case of `CCOC(=O)N1c2ccc(C(F)(F)F)cc2[C@@H](N(Cc2cc(C(F)(F)F)cc(C(F)(F)F)c2)C(=O)OC)C[C@H]1CC` [Drug 2, [2R,4S] 4-[(3,5-bis-trifluoromethyl-benzyl)-methoxycarbonyl-amino]-2-ethyl-6-trifluoromethyl-3,4-dihydro-2H-quinoline-1-carboxylic acid ethyl ester], the C1200 ([3]; Drug 2, PBS, concentration of drug at 1200 minutes) is reported as under 1 µg/mL, the AUC90 ([3]; Drug 2, PBS) is reported as under 100 µg·min/mL and the MDC90 ([3]; Drug 2, PBS) is reported as under 1 µg/mL. The AUC ([3]; 0 min) was under 100 µg·min/mL, the “Drug 2 Concentration” value ([3]; 0 min) was under 1 µg/mL and the AUC ([3]; 4 min) was under 100 µg·min/mL. The “Drug 2 Concentration” value ([3]; 4 min) was under 1 µg/mL, the AUC ([3]; 10 min) was under 100 µg·min/mL and the “Drug 2 Concentration” value ([3]; 10 min) was under 1 µg/mL. For the same molecule, the AUC ([3]; 20 min) was under 100 µg·min/mL, the “Drug 2 Concentration” value ([3]; 20 min) was under 1 µg/mL and the AUC ([3]; 40 min) was under 100 µg·min/mL. For the same molecule, the “Drug 2 Concentration” value ([3]; 40 min) was under 1 µg/mL, the AUC ([3]; 90 min) was under 100 µg·min/mL and the “Drug 2 Concentration” value ([3]; 90 min) was under 1 µg/mL. The AUC ([3]; 1200 min) was under 100 µg·min/mL, the “Drug 2 Concentration” value ([3]; 1200 min) was under 1 µg/mL and the Tg [4] was “about 30 °C”. For the same molecule, the solubility [5] was under 1 µg/mL.
